Results as given in PMC6137088, “The Role of Outer Membrane Proteins and Lipopolysaccharides for the Sensitivity of Escherichia coli to Antimicrobial Peptides” (Frontiers in Microbiology, 2018).
Where no end group is shown, it is not given here.

What was measured:
[1] = test system: E. coli ATCC25922 ΔwaaC; assay type: cell-based, Escherichia coli; conditions: Table 6, triplicates
Description: (§1) The E. coli strains 470, F632, F653 and F2513 were kindly provided by Prof. H. Brade and Prof. S. Muller-Loennies, Research Center Borstel, Leipniz-Center for Medicine and Biosciences, Germany. E. coli BW25113 (CGSC#:7636), a derivative of F^−, λ^− E. coli K12 strain BD792 is the wild-type strain which was used in the generation of the KEIO collection and ordered from the Coli Genetic Stock Centre (CGSC, Yale University). E. coli JW3596, E. coli JW3024, E. coli JW3595, E. coli JW3606, E. coli JW0212, E. coli JW1667, E. coli JW0554, E. coli JW3605 and E. coli JW3600 are isogenic mutants of waaC, waaE, waaF, waaG, gmhA (lpcA), lpp, ompT, waaP, or waaY derived from the parental strain E. coli BW25113 and were ordered from the KEIO collection (Baba et al., [2006]). E. coli ATCC25922 is a clinical isolate, serotype O6, often used as control strain in antimicrobial susceptibility testing was ordered from the ATCC strain collection. All strains were grown in Mueller-Hinton-II medium and incubation took place aerobically at 37°C for 18–20 h.
(§2) The minimum inhibitory concentrations (MICs) of the AMPs were measured in 96-well microtiter plates according the Clinical and Laboratory Standards Institute [CLSI, formerly National Committee for Clinical Laboratory Standards (NCCLS)] (Wikler et al., [2009]). Liquid Mueller-Hinton-II medium containing increasing concentrations of AMPs is inoculated with a defined number of cells (~10^5 CFUs/ml) in 96-well microtiter plates (polypropylene). Each microtiter plate includes a positive growth control and a negative control (sterile control). After incubation, the minimal inhibitory concentration (MIC) is determined by the lowest concentration showing no visible growth. All plates were incubated for 16–20 h.

[2] = test system: E. coli ATCC25922 ΔwaaE; assay type: cell-based, Escherichia coli; conditions: Table 6, triplicates
Description: as §1, §2

[3] = test system: E. coli ATCC25922 ΔwaaF; assay type: cell-based, Escherichia coli; conditions: Table 6, triplicates
Description: as §1, §2

[4] = test system: E. coli ATCC25922 ΔwaaG; assay type: cell-based, Escherichia coli; conditions: Table 6, triplicates
Description: as §1, §2

[5] = test system: E. coli ATCC25922; assay type: cell-based, Escherichia coli; conditions: Table 6; E. coli ATCC25922 wild-type; triplicates
Description: as §1, §2

[6] = test system: S. typhimurium LT2; test: MIC testing (CLSI broth microdilution); assay type: cell-based; conditions: Table 6, triplicates
Experimental: as §2

[7] = test system: Y. ruckeri 392/2003; test: MIC testing (CLSI broth microdilution); assay type: cell-based; conditions: Table 6, triplicates
Experimental: as §2

| Sequence | Antimicrobial activity: MIC [1] [µg/mL] | Antimicrobial activity: MIC [2] [µg/mL] | Antimicrobial activity: MIC [3] [µg/mL] | Antimicrobial activity: MIC [4] [µg/mL] | Antimicrobial activity: MIC [5] [µg/mL] | Antimicrobial activity: MIC [6] [µg/mL] | Antimicrobial activity: MIC [7] [µg/mL] |
| --- | --- | --- | --- | --- | --- | --- | --- |
| GLRKRLRKFRNKDKEKLKKIGQKIQGLLPKLAPRTDY [I13D] | ≥64 | ≥64 | ≥64 | ≥64 | ≥64 | ≥64 | ≥64 |
| GLRKRLRKFRNKFKEKLKKIGQKIQGLLPKLAPRTDY [I13F] | 2 | 2 | 2 | 2 | 4 | 4 | 2 |
| GLRKRLRKFRNKHKEKLKKIGQKIQGLLPKLAPRTDY [I13H] | 2 | 2 | 2 | 2 | 4 | 4 | 8 to 16 |
| GLRKRLRKFRNKIKECLKKIGQKIQGLLPKLAPRTDY [K16C] | 4 | 8 | 4 | 8 | 8 | 8 to 16 | 8 to 16 |
| GLRKRLRKFRNKIKEDLKKIGQKIQGLLPKLAPRTDY [K16D] | 2 | 8 | 2 | 4 | 4 | 4 | 4 |
| GLRKRLRKFRNKIKEKDKKIGQKIQGLLPKLAPRTDY [L17D] | ≥64 | ≥64 | ≥64 | ≥64 | ≥64 | ≥64 | ≥64 |
| GLRKRLRKFRNKIKEKLKKIGQKDQGLLPKLAPRTDY [I24D] | 16 | 16 | 16 | ≥64 | ≥64 | ≥64 | ≥64 |
| GLRKRLRKFRNKIKEKLKKIGQKIQTLLPKLAPRTDY [G26T] | 4 | 4 | 4 | 4 | 8 | 4 to 8 | 2 to 4 |
| GLRKRLRKFRNKIKEKLKKIGQKNQGLLPKLAPRTDY [I24N] | 8 | 16 | 8 | 16 | ≥64 | 32 | ≥64 |
| GLRKRLRKFRNKIKEKLKKNGQKIQGLLPKLAPRTDY [I20N] | 16 | 16 | 8 | 16 | ≥64 | 8 to 16 | ≥64 |
| GLRKRLRKFRNKIKEKLPKIGQKIQGLLPKLAPRTDY [K18P] | 2 | 4 | 4 | 4 | 8 | 4 | 32 |
| GLRKRLRKFRNKIKEKPKKIGQKIQGLLPKLAPRTDY [L17P] | ≥64 | ≥64 | ≥64 | ≥64 | ≥64 | ≥64 | ≥64 |
| GLRKRLRKFRNKMKEKLKKIGQKIQGLLPKLAPRTDY [I13M] | 4 | 8 | 4 | 4 | 8 | 8 | 4 |
| GLRKRLRKFRNKPKEKLKKIGQKIQGLLPKLAPRTDY [I13P] | 32 | 32 | 16 | 32 | ≥64 | 16 to 32 | ≥64 |
| GLRKRLRKFRNKRKEKLKKIGQKIQGLLPKLAPRTDY [I13R] | 32 | ≥64 | 16 | 8 | ≥64 | 16 to 32 | 32 to 64 |
| GLRKRPRKFRNKIKEKLKKIGQKIQGLLPKLAPRTDY [L6P] | 4 | 8 | 4 | 4 | 8 | 8 | 64 |
